Data from BindingDB's records for doi:10.1021/jm050113z (University of North Carolina at Chapel Hill, 2005).

Biological target: T1, Protein RecA (Escherichia coli (strain K12), UniProt P0A7G6)
T1 sequence (P0A7G6 whole entry): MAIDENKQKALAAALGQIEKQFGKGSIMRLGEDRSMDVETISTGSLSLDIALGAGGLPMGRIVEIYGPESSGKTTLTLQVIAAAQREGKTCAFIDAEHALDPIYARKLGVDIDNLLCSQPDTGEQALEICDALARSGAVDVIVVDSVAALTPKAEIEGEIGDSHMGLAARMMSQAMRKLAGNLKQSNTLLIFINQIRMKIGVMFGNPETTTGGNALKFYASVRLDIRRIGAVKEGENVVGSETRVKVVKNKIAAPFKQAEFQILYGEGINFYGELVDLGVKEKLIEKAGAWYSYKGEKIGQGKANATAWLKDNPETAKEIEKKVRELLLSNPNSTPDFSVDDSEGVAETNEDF
Assay: In vitro apparent inhibition constant against Escherichia coli RecA protein

- Ki: 46 µM
SMILES: O=P(O)(O)OP(=O)(O)OC[C@H]1O[C@@H](n2cnc3c(Nc4cccc5ccccc45)ncnc32)[C@H](O)[C@@H]1O
